These results are taken from publication PMC9367663 (Journal of Enzyme Inhibition and Medicinal Chemistry, 2022).

By IC50 is commonly meant the point on the concentration scale where inhibition reaches its midpoint.

Structures are written as SMILES. Where two headings read alike, the source gives them in different places.

In the assay the test system is VSV*ΔG(Luc)-S virus harbouring the spike from the D614G variant. Format: cell-based, SARS-CoV-2.

As to `On1ccccc1=S` [a, 1-hydroxy-2(1H)-pyridinethione], the “inhibition of viral entry” value was determined as 15.33% (0.5 µM), 16.67% (1 µM), 74.34% (10 µM) and 86.41% (30 µM). Besides, the IC50 (read-out: IC50 viral entry) worked out at 5.19 µM.
